According to patent publication US11771694B2, “Arylamide compounds for treatment and prevention of viral infections” (priority 2020, dated 2023):
≈ marks a conversion by molar mass, not a printed value. Where “and” joins values, the source holds several entries; their conditions need not be identical. Identical values can stand only once. Like-named read-outs stand apart in the source and are kept apart here.

What was measured:
LPS-induced IL-6 release = assay: LPS-induced IL-6 release, NR8383 cells, ELISA; assay type: cell-based; settings: Rattus norvegicus, 8-hour exposure, read-out: IC50, inhibition of LPS-induced IL-6 release
Pseud. aeruginosa = assay: Broth microdilution MIC; assay type: cell-based; settings: Pseudomonas aeruginosa; Pseud. aeruginosa; 2-3 isolates/organism; read-out: MIC
HCoV-229E = assay: Virus yield reduction assay, HCoV-229E on Huh-7 cells; assay type: cell-based; settings: Human coronavirus 229E, 48 hours post-infection
Protocol: For these assays, brilacidin was included during viruses infection and post infection stages. The EC50 values were calculated from best-fit dose response curves with variable slope in Prism 8.

[1] = tested on: SARS-CoV-2 spike pseudotyped luciferase virus; assay type: cell-based
Haemophilus influenzae = assay: Broth microdilution MIC; assay type: cell-based; settings: 2-3 isolates/organism, read-out: MIC
[2] = tested on: Acute Bacterial Skin and Skin Structure Infections (ABSSSI); assay: Phase 2 trials in ABSSSI; assay type: in vivo, human; settings: single dose and 3-day regimen, IV infusion; Phase 2b CTIX-BRI-204
Source text: Further details on clinical success rates by baseline pathogen for the ABSSSI Phase 2b study are presented in FIG. 26 (blank cells=no participants presented with the specified baseline pathogen. EOT: End of Treatment. STFU: Short-Term Follow-Up).

SARS-CoV-2 [3] = assay type: cell-based; settings: Calu-3; MOI 0.05; 24 hpi
[4] = tested on: LPS-induced IL-1β release; assay: LPS-induced IL-1β release, NR8383 cells, ELISA; assay type: cell-based; settings: Rattus norvegicus, 8-hour exposure, read-out: IC50, inhibition of LPS-induced IL-1β release
Acinetobacter spp. = assay: Broth microdilution MIC; assay type: cell-based; settings: 2-3 isolates/organism
SARS-CoV-2 [5] = assay: SARS-CoV-2 testing in Caco-2 cells and primary lung fibroblasts; assay type: cell-based; settings: Caco-2 cells and primary lung fibroblasts from human donors; data not shown
LPS-induced IL-8 release = assay: LPS-induced IL-8 release, THP-1 cells, ELISA; assay type: cell-based; settings: Homo sapiens, 8-hour exposure, read-out: IC50, inhibition of LPS-induced IL-8 release
[6] = tested on: LPS-induced MMP-9 release; assay: LPS-induced MMP-9 release, NR8383 cells, ELISA; assay type: cell-based; settings: Rattus norvegicus, 8-hour exposure, read-out: IC50, inhibition of LPS-induced MMP-9 release
Klebsiella pneumoniae = assay: Broth microdilution MIC; assay type: cell-based; settings: 2-3 isolates/organism, read-out: MIC
Providencia stuartii = assay: Broth microdilution MIC; assay type: cell-based; settings: 2-3 isolates/organism, read-out: MIC
Staph. epidermidis = assay: Broth microdilution MIC; assay type: cell-based; settings: Staphylococcus epidermidis; Staph. epidermidis; 2-3 isolates/organism; read-out: MIC
Citrobacter fruendi = assay: Broth microdilution MIC; assay type: cell-based; settings: Citrobacter fruendi; 2-3 isolates/organism; read-out: MIC
Staph. aureus (MRSA) = assay: Broth microdilution MIC; assay type: cell-based; settings: Staphylococcus aureus; Staph. aureus (MRSA); 2-3 isolates/organism; read-out: MIC
[7] = tested on: luciferase-expressing pseudotyped virus (rVSV) containing the SARS-CoV-2 spike protein; assay type: cell-based
Vero cells = settings: 24 hours
[8] = tested on: human liver cell line (HepG2)
[9] = tested on: LPS-induced TNF-α release; assay: LPS-induced TNF-α release, NR8383 cells, ELISA; assay type: cell-based; settings: Rattus norvegicus, 8 h; read-out: IC50, inhibition of LPS-induced TNF-α release
[10] = tested on: embryonic mouse cell line (NIH/3T3)
[11] = tested on: LPS-induced CINC-3 release; assay: LPS-induced CINC-3 release, NR8383 cells, ELISA; assay type: cell-based; settings: Rattus norvegicus, 8-hour exposure, read-out: IC50, inhibition of LPS-induced CINC-3 release
[12] = tested on: SARS-CoV-2 (Washington strain 2019-nCoV/USA-WA1/2020); settings: Vero; direct assay; 10 μM; 24 hpi
[13] = tested on: luciferase-expressing pseudotyped virus (rVSV) containing the SARS-CoV-2 spike protein; assay type: cell-based; remark: listed apart in the source
human PDE3A = human PDE3A (Homo sapiens, UniProt Q14432); assay: PDE-Glo phosphodiesterase assay, PDE3A; assay type: biochemical; settings: 1 μM cAMP substrate; read-out: IC50, inhibition of human PDE3A
Sequence of human PDE3A (Q14432 whole entry): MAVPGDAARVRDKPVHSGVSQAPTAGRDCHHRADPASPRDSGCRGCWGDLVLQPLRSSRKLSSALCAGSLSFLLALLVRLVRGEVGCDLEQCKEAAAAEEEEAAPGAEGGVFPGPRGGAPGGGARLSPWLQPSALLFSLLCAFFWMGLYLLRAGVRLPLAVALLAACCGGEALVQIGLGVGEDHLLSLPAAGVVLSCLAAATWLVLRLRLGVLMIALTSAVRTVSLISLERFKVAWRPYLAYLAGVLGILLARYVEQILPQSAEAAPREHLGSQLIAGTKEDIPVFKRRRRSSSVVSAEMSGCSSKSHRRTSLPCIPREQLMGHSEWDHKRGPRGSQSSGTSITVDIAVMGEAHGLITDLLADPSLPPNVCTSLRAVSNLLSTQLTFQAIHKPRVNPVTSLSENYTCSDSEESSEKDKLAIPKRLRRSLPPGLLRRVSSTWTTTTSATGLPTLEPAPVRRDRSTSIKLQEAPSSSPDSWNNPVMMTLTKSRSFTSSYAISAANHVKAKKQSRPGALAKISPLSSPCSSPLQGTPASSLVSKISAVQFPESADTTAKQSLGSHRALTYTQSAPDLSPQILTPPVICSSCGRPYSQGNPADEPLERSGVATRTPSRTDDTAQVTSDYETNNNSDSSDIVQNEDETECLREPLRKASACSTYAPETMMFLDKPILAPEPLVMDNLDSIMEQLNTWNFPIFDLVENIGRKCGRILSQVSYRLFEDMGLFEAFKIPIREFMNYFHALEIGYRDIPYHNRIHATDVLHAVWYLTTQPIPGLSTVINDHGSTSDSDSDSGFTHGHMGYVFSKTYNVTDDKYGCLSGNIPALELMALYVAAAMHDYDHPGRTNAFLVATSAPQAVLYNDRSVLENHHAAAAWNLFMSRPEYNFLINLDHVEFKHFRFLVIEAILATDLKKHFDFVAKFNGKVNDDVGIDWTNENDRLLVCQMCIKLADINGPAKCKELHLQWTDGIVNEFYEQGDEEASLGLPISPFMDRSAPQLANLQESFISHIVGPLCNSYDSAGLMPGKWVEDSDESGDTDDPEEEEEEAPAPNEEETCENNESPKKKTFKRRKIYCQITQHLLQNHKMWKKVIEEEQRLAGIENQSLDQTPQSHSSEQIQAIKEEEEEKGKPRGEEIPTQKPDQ

What does the source list for `N=C(N)NCCCCC(=O)Nc1cc(C(F)(F)F)cc(NC(=O)c2cc(C(=O)Nc3cc(C(F)(F)F)cc(NC(=O)CCCCNC(=N)N)c3OC3CCNC3)ncn2)c1OC1CCNC1` (stereo not shown) [brilacidin]?
IC50 (LPS-induced IL-6 release): 274 nM; MIC (Pseud. aeruginosa): 32 µg/mL (≈ 34.2 µM); EC50 (HCoV-229E): 1950 ± 67 nM; inhibition (luciferase activity) vs vehicle control ([1]; 0.1 μg/ml): 29%; inhibition (luciferase activity) vs vehicle control ([1]; 100 μg/ml): 85%; MIC (Haemophilus influenzae): 4 to 8 µg/mL (≈ 4.27 to 8.54 µM); efficacy (early clinical response) [2]: comparable to that a 7-day regimen of daptomycin; inhibition of infectious titer, each drug alone (SARS-CoV-2 [3]): up to 90%; IC50 [4]: 702 nM; MIC (Acinetobacter spp.): 4 µg/mL (≈ 4.27 µM); inhibitory properties in ACE2 positive cell lines (SARS-CoV-2 [5]): supported brilacidin's inhibitory properties; IC50 (LPS-induced IL-8 release): 10800 nM; IC50 [6]: 2300 nM; MIC (Klebsiella pneumoniae): 1 to 2 µg/mL (≈ 1.07 to 2.13 µM); MIC (Providencia stuartii): 16 to 64 µg/mL (≈ 17.1 to 68.3 µM); MIC (Staph. epidermidis): 0.25 to 0.5 µg/mL (≈ 0.267 to 0.534 µM); MIC (Citrobacter fruendi): 2 to 4 µg/mL (≈ 2.13 to 4.27 µM); MIC (Staph. aureus (MRSA)): 0.5 to 1 µg/mL (≈ 0.534 to 1.07 µM); intracellular spike protein signal [7]: decreased intracellular spike protein signal; cell viability compared to the DMSO vehicle control (Vero cells; concentrations higher than 40 μM): dose-dependent, statistically significant decrease in cell viability; cell viability compared to the DMSO vehicle control (Vero cells; up to 40 μM): did not affect cell viability; Selectivity (EC50/MIC) HepG2 [8]: 1,031; IC50 [9]: 442 nM; Selectivity (EC50/MIC) 3T3 [10]: 430; IC50 [11]: 425 nM; decrease in the viral genomic copies [12]: 29%; inhibition of pseudovirus (rVSV) attachment and entry [13]: inhibited the pseudovirus at both concentrations tested in a comparable manner; IC50 (human PDE3A): ~1800 nM and 1800 nM
